Common to all, as to format: cell-based
In assay [1] the test system is SA506 S. aureus ermA positive msrA unknown. As to the kind of experiment: broth dilution MIC, S. aureus SA506. Particulars: Staphylococcus aureus. The text has this: (§1) We have collected MIC data for a total of 50 novel macrolides that this platform has produced against over 21 unique strains of B. subtilis, E. coli, S. aureus, S. pneumoniae, and H. influenzae, including several multidrug-resistant strains, with a special focus on macrolide resistant mechanisms (vide supra). Azithromycin was included as a control macrolide. CLSI standard procedures for broth dilution MIC determination were used. […] These genotypes can be constitutive or inducible. The finding that C4-epi (unnatural) isomers of the “azaketolide” macrolide class have enhanced activities relative to C4 natural isomers is very exciting.
(Dilution methods test growth across graded concentrations, often in twofold steps.)

Assay [2] concerns SA418 S. aureus ermA negative msrA positive. In words: broth dilution MIC, S. aureus SA418. Particulars: Staphylococcus aureus.
Excerpt: as §1

The subject of a further assay is EC878 E. coli tolC. In words: broth dilution MIC, E. coli EC878. As to conditions: Escherichia coli. The gist of the method:
(§2)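 Standard CLSI broth dilution method used for MIC determination. Control: azithromycin.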

Assay [3] concerns Spn1533 S. pneumoniae ermB positive mefA positive. As to the kind of experiment: broth dilution MIC, S. pneumoniae Spn1533. Particulars: Streptococcus pneumoniae.
Excerpt: as §1

A further assay deals with EC882 E. coli imp. As to the kind of experiment: broth dilution MIC, E. coli EC882. The gist of the method:
as §2

The subject of assay [4] is Spn1427 S. pneumoniae ermB positive mefA negative. In words: broth dilution MIC, S. pneumoniae Spn1427. Particulars: Streptococcus pneumoniae.
Excerpt: as §1

Assay [5] deals with HI175 H. influenzae ATCC49247. As to the kind of experiment: broth dilution MIC, H. influenzae HI175. Particulars: Haemophilus influenzae.
Excerpt: as §1

In another assay the test system is EC107 E. coli ATCC25922. In words: broth dilution MIC, E. coli EC107. As to conditions: Escherichia coli, read-out: MIC. The gist of the method:
as §2

For a further assay, the system named is BS1725 B. subtilis ermC. As to the kind of experiment: broth dilution MIC, B. subtilis BS1725. As to conditions: Bacillus subtilis, BS1725 B. subtilis ermC (+ery). The gist of the method:
as §2

Assay [6] deals with SA1708 S. aureus ermA positive msrA negative. As to the kind of experiment: broth dilution MIC, S. aureus SA1708. As to conditions: Staphylococcus aureus.
Excerpt: as §1

Assay [7] relates to SA1707 S. aureus ermA negative msrA positive. In words: broth dilution MIC, S. aureus SA1707. As to conditions: Staphylococcus aureus.
Excerpt: as §1

Assay [8] concerns Spn1509 S. pneumoniae ermB positive mefA negative. As to the kind of experiment: broth dilution MIC, S. pneumoniae Spn1509. As to conditions: Streptococcus pneumoniae; Spn1509 S. pneumoniae ermB positive mefA negative; read-out: MIC.
Excerpt: as §1

The subject of assay [9] is SA101 S. aureus ATCC29213. As to the kind of experiment: broth dilution MIC, S. aureus SA101. As to conditions: Staphylococcus aureus, ATCC29213, SA101 S. aureus ATCC29213; read-out: MIC. The method, boiled down:
as §2

The test system of assay [10] is SA557 S. aureus ermA unknown msrA positive. In words: broth dilution MIC, S. aureus SA557. As to conditions: Staphylococcus aureus; SA557 S. aureus ermA unknown msrA positive; read-out: MIC.
Excerpt: as §1

For assay [11], the system named is BS1723 B. subtilis BS168 WT wild type. As to the kind of experiment: broth dilution MIC, B. subtilis BS1723. Particulars: Bacillus subtilis, BS1723 B. subtilis BS168 WT wild type; read-out: MIC. The method, boiled down:
as §2

Assay [12] relates to SA183 S. aureus ermA positive msrA unknown. As to the kind of experiment: broth dilution MIC, S. aureus SA183. Particulars: Staphylococcus aureus.
Excerpt: as §1

In assay [13] the test system is Spn 106 S. pneumonia ATCC49619. In words: broth dilution MIC, S. pneumoniae Spn 106. Particulars: Streptococcus pneumoniae; Spn 106 S. pneumonia ATCC49619; read-out: MIC.
Excerpt: as §1

The test system of assay [14] is Spn1537 S. pneumoniae ermB positive mefA positive. As to the kind of experiment: broth dilution MIC, S. pneumoniae Spn1537. Particulars: Streptococcus pneumoniae.
Excerpt: as §1

Assay [15] concerns Spn160 S. pneumoniae ermB unknown mefA positive. In words: broth dilution MIC, S. pneumoniae Spn160. As to conditions: Streptococcus pneumoniae; Spn160 S. pneumoniae ermB unknown mefA positive; read-out: MIC.
Excerpt: as §1

Another assay has as its system HI281 H. influenzae. In words: broth dilution MIC, H. influenzae HI281. As to conditions: Haemophilus influenzae.
Excerpt: as §1

We go through three compounds from patent US9982005B2, “Macrolides and methods of their preparation and use” (President and Fellows of Harvard College, priority 2013, dated 2018).

≈ marks a conversion by molar mass, not a printed value. Where two headings read alike, the source gives them in different places.

For `CC[C@H]1OC(=O)C(C)(F)C(=O)[C@@H](C)[C@@H](O[C@@H]2OC(C)CC(N(C)C)C2O)[C@](C)(OC)C[C@@H](C)CN[C@H](C)[C@H]2N(CCCCn3cc(-c4cccc(N)n4)nn3)C(=O)O[C@]12C` (stereo partly drawn) [FSM-20718], the MIC is above 32 µg/mL in assay [1]; 16 µg/mL (≈ 18.9 µM) in [2]; 1 µg/mL (≈ 1.18 µM) with EC878 E. coli tolC; above 32 µg/mL in assay [3]; 0.125 µg/mL (≈ 0.148 µM) against EC882 E. coli imp (Escherichia coli); 4 to 32 µg/mL (≈ 4.72 to 37.8 µM) in [4]. The MIC is 2 to 16 µg/mL (≈ 2.36 to 18.9 µM) in assay [5]; above 32 µg/mL in the assay with EC107 E. coli ATCC25922; above 32 µg/mL against BS1725 B. subtilis ermC; 16 µg/mL (≈ 18.9 µM) in assay [6]; 32 µg/mL (≈ 37.8 µM) in assay [7]; 0.5 to 4 µg/mL (≈ 0.59 to 4.72 µM) in assay [8]. For the same compound, the MIC in assay [9] was 8 µg/mL (≈ 9.44 µM); in assay [10] it was 8 µg/mL (≈ 9.44 µM); in assay [11], 8 µg/mL (≈ 9.44 µM); in [12], above 32 µg/mL; in assay [13], 0.0156 to 0.25 µg/mL (≈ 0.0184 to 0.295 µM); in [14], above 32 µg/mL. Further, in [15], the MIC lay within 0.25 to 1 µg/mL (≈ 0.295 to 1.18 µM).
On to `CC[C@H]1OC(=O)C(C)(F)C(=O)[C@@H](C)[C@@H](O[C@@H]2OC(C)CC(N(C)C)C2O)[C@](C)(OC)C[C@@H](C)CN(C)[C@H](C)[C@H]2N(CCCCn3cc(-c4nccs4)nn3)C(=O)O[C@]12C` (stereo partly drawn) [FSM-20705], for which the MIC in [1] was above 32 µg/mL; in [2], 16 µg/mL (≈ 18.8 µM); with EC878 E. coli tolC, 2 µg/mL (≈ 2.35 µM); in assay [3] it was above 32 µg/mL; in the assay with EC882 E. coli imp, 0.25 µg/mL (≈ 0.293 µM); against HI281 H. influenzae, above 32 µg/mL. Further, the MIC in assay [5] was 16 to 32 µg/mL (≈ 18.8 to 37.6 µM); in the assay on EC107 E. coli ATCC25922 it was above 32 µg/mL; in the assay with BS1725 B. subtilis ermC, above 32 µg/mL; in [6], 16 µg/mL (≈ 18.8 µM); in assay [7], 32 µg/mL (≈ 37.6 µM); in [8], 4 to 16 µg/mL (≈ 4.69 to 18.8 µM). Besides, the MIC was 8 µg/mL (≈ 9.39 µM) in assay [9]; 8 µg/mL (≈ 9.39 µM) in assay [10]; 8 µg/mL (≈ 9.39 µM) in [11]; above 32 µg/mL in assay [12]; 0.125 to 0.25 µg/mL (≈ 0.147 to 0.293 µM) in assay [13]; above 32 µg/mL in [14]. The MIC in [15] lay in the range of 0.5 to 1 µg/mL (≈ 0.587 to 1.17 µM).
On to `CC[C@H]1OC(=O)C(C)(F)C(=O)[C@@H](C)[C@@H](O[C@@H]2OC(C)CC(N(C)C)C2O)[C@](C)(OC)C[C@@H](C)CN[C@H](C)[C@H]2N(CCCCn3cc(-c4nccs4)nn3)C(=O)O[C@]12C` (stereo partly drawn) [FSM-20721], for which the MIC in assay [1] was above 32 µg/mL; in assay [2] it was 16 µg/mL (≈ 19.1 µM); against EC878 E. coli tolC it was 1 µg/mL (≈ 1.19 µM); in assay [3], above 32 µg/mL; in the assay with EC882 E. coli imp (Escherichia coli) it was 0.25 µg/mL (≈ 0.298 µM); in assay [4], above 32 µg/mL. Further, the MIC in assay [5] was 8 to 32 µg/mL (≈ 9.55 to 38.2 µM); with EC107 E. coli ATCC25922 it was above 32 µg/mL; in the assay on BS1725 B. subtilis ermC, above 32 µg/mL; in assay [6] it was 16 µg/mL (≈ 19.1 µM); in assay [7], 16 µg/mL (≈ 19.1 µM); in assay [8], 8 to 16 µg/mL (≈ 9.55 to 19.1 µM). Besides, the MIC in assay [9] was 8 µg/mL (≈ 9.55 µM); in assay [10], 16 µg/mL (≈ 19.1 µM); in assay [11] it was 8 µg/mL (≈ 9.55 µM); in [12], above 32 µg/mL; in [13] it was 0.125 to 0.25 µg/mL (≈ 0.149 to 0.298 µM); in assay [14], above 32 µg/mL. Also, the MIC in assay [15] lay within 0.5 to 1 µg/mL (≈ 0.597 to 1.19 µM).
